Test results published in PubChem BioAssay AID1645866 (Buhrlage Lab, Dana-Farber Cancer Institute and Novartis …, 2021).
Activity calls are given as the source filed them.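 The calls were made as follows: active = in confirmatory dose-response testing, peak deubiquitinase inhibition of 30% or more; inactive = the rest.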

target: Ubiquitin carboxyl-terminal hydrolase 28 (Homo sapiens) (UniProt Q96RU2); test: Concentration-response biochemical assay confirming initial hits as inhibitors of ubiquitin-specific protease 28 (AID 1645866); settings: purified USP28, ubiquitin-rhodamine fluorescence, 30 min
Sequence (Q96RU2 whole entry, looked up): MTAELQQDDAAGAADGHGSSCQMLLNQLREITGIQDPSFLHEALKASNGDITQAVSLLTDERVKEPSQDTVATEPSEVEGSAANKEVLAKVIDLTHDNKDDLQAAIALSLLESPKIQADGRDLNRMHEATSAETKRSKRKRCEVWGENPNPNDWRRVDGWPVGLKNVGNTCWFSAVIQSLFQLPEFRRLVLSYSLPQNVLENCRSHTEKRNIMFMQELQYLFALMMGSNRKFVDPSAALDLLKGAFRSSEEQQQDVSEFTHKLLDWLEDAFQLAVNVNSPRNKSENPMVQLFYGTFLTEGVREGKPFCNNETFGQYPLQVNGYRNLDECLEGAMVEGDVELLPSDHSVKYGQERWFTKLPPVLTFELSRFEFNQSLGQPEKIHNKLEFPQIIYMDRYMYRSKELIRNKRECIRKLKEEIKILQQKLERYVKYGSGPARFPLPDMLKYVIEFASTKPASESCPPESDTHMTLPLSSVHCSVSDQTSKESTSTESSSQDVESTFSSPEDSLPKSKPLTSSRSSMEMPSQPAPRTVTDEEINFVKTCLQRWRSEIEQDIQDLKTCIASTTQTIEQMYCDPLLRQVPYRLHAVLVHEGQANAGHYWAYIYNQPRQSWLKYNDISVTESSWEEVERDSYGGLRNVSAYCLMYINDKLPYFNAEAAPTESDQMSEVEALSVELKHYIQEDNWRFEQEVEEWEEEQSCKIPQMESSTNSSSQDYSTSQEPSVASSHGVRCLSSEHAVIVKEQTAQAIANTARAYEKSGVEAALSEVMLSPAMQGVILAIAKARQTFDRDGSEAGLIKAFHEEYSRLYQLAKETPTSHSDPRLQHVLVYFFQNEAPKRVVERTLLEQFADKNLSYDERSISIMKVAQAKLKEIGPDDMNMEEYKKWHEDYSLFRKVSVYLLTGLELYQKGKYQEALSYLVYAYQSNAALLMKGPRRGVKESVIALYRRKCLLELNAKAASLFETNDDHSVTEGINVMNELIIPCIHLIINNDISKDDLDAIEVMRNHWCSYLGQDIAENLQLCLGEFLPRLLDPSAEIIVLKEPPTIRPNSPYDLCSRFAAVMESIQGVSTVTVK

SMILES	IC50
O=C(Nc1ccc(Br)cn1)c1nc2ccccc2nc1N1CCCCC1	> 50 µM (inactive)
O=C(Cn1cncc(C(=O)NC2CCCC2)c1=O)Nc1cccc(F)c1	21.6 µM
CC(=O)N1CCc2cc(CNC(=O)Nc3cc(C)ccc3C)ccc21	46.7 µM
COc1ccc(-n2c(=O)c(CCC(=O)O)nc3ccccc32)cc1	> 50 µM (inactive)
Cc1nc(N2CCCC2)ncc1C(=O)Nc1ccc(F)c(F)c1	32.9 µM
Cn1nc(-c2nc(-c3ccccc3)no2)c2c1CCN(C(=O)C1CC1)C2	> 50 µM (inactive)
CC(=O)Nc1ccc(S(=O)(=O)Nc2ccc(Nc3ccc(-n4cccn4)nn3)cc2)cc1	32.8 µM
COc1ccc(CNC(=O)CSc2nc3nc(C)ccc3o2)cc1	31.3 µM
COCCCn1c(C(=O)Nc2ccccc2OC)cc2c(=O)n3ccccc3nc21	29.9 µM
COc1ccc(S(=O)(=O)Nc2ccc(Nc3ccc(-n4cccn4)nn3)cc2)cc1	41 µM
CCNc1oc(-c2ccc(S(=O)(=O)N3CCCCC3)cc2)nc1C#N	26.6 µM
CC(C)(C)c1cc(C[C@@H]2C[C@H](NC(=O)N3CCOCC3)C2(C)C)no1	> 50 µM (inactive)
O=C(COC(=O)C1CCCN1C(=O)C12CC3CC(CC(C3)C1)C2)c1ccc(Cl)cc1 (stereo not drawn)	> 50 µM (inactive)
CC(=O)Nc1ccc(Cc2nc(-c3ccc4c(c3)nc(C)c(=O)n4C3CCCC3)no2)cc1	> 50 µM (inactive)
Cn1cccc1C(=O)N1CCCC2(C1)Nc1cccnc1NC2=NC1CCCC1 (stereo not drawn)	> 50 µM (inactive)
COc1ccc(C)cc1NC(=O)Cc1csc(NC(=O)c2ccc(=O)[nH]c2)n1	46.9 µM
COCC(=O)Nc1cc(F)c2nc(N3CCOCC3)ccc2c1	> 50 µM (inactive)
COc1c2c(cc3cc(O)c4c(=O)cc(C)oc4c13)CCC2=O	28.8 µM
CCOc1ccc(-n2c(SCC(=O)N3CC(=O)Nc4ccccc43)nnc2-c2ccc(OC)cc2)cc1	25.2 µM

SMILES	IC50
CC(C)(C)C(=O)Nc1ccc(SCc2nnc(-c3ccccc3)o2)cc1	21.8 µM
O=C(O)c1ccccc1C(=O)Nc1ccc(SC(C(=O)Nc2cccc(Cl)c2)c2ccccc2)cc1 (stereo not drawn)	22.4 µM
O=C(/C=C/c1ccccc1)N1CCN(C2=NS(=O)(=O)c3ccccc32)CC1	> 50 µM (inactive)
c1ccc2c(c1)ccc1nnc(-c3ccc4c(c3)OCO4)n12	> 50 µM (inactive)
CN(CCc1ccccc1)c1nccc(N2CCN(C(=O)c3csc(-c4cccnc4)n3)CC2)n1	> 50 µM (inactive)
CC(C)c1cc(Nc2cccc(F)c2)n2nc(-c3cccnc3)nc2n1	24.8 µM
Cc1ccc(NC(=O)c2ccc3c(c2)N(S(C)(=O)=O)CC3)cc1	25.2 µM
COC(=O)[C@]1(O)O[C@@]2(C(=O)OC)c3c(oc4cc(C)cc(O)c4c3=O)[C@H]3c4c(oc5cc(C)cc(O)c5c4=O)C[C@H]1[C@H]32	> 50 µM (inactive)
CSc1ccc(CNCc2c(C(=O)O)n(Cc3ccccc3)c3cc(C)ccc23)cc1	> 5 µM (inactive)
O=C(CC1Oc2ccccc2NC1=O)Nc1ccccc1Br (stereo not drawn)	38 µM
CN(C)S(=O)(=O)c1ccc(N2CCCC2)c(C(=O)Nc2ccc(-c3cn4ccsc4n3)cc2)c1	> 50 µM (inactive)
CC1CC(=O)c2c(cc3c(-c4c(O)cc(O)c5c(O)c6c(cc45)OC(C)CC6=O)c(O)cc(O)c3c2O)O1 (stereo not drawn)	20.8 µM
COc1ccc(CC(=O)Nc2ccc3nc(N4CCOCC4)cc(C)c3c2)cc1	26 µM
CC1CC(=O)Nc2ccccc2N1S(=O)(=O)c1ccc(C#N)cc1 (stereo not drawn)	33.1 µM
COc1ccccc1NC(=O)c1cc2c(C)nn(Cc3ccccc3)c2s1	38.1 µM
CCc1ccc(NC(=O)CN=C2NS(=O)(=O)C(c3ccc(CC)cc3)=C2C)cc1	21.7 µM
CC1CCN(S(=O)(=O)c2ccc3[nH]cc(C(=O)NCc4ccco4)c(=O)c3c2)CC1	> 50 µM (inactive)
Cc1ccccc1NC(=O)CNc1nc(Nc2ccccc2)nc(Nc2ccccc2)n1	19.1 µM

The remaining lines, values ahead:

IC50	SMILES
3.75 µM	O=[N+]([O-])c1ccc(NCC2COc3ccccc3O2)c(Cl)c1 (stereo not drawn)
3.31 µM	O=C1c2ccccc2NC2(C(=O)Nc3ccc(Br)cc32)N1c1ccccc1 (stereo not drawn)
12.4 µM	COc1ccc(NC(=O)Cn2c(CS(=O)(=O)c3ccc(C)cc3)nc3ccccc32)cc1
2.76 µM	Cn1c(=O)sc2cc(NC(=O)c3ccc(Br)cc3)ccc21
10.5 µM	CCn1cc2c(n1)c(=O)n(Cc1ccccc1)c(=O)n2CC(=O)Nc1ccc(OC)cc1
2.13 µM	O=C(NCc1ccccc1Cl)c1ccc(-c2nnc(-c3ccccc3)o2)cc1
3.22 µM	O=C(NCc1ccccc1Cl)C1CCCN(c2nc3ccsc3c(=O)s2)C1 (stereo not drawn)
14.3 µM	CC(CCc1ccccc1)NC(=O)Cn1c(=O)c2cccn2c2ccccc21 (stereo not drawn)
7.17 µM	COc1cccc(NC(=O)CCc2c(C)nn(-c3cc(N4CCCCC4)ncn3)c2C)c1
4.43 µM	O=C(NCc1ccc(-c2nc3cnccc3o2)cc1)c1cc2ccccc2o1
1.85 µM	CC(c1ccccc1)n1c(-c2ccc(F)cc2)nc2c(c(=O)c3ccccc3n2C)c1=O (stereo not drawn)
2.01 µM	COc1ccc(Nc2nc3c(S(=O)(=O)c4ccc(C)cc4)nnn3c3ccsc23)c(OC)c1
2.9 µM	Cc1nc2nc(SCc3nc4ccccc4n3C)[nH]c2cc1Br
2.61 µM	COc1ccc(NC(=O)c2nnn(-c3ccccc3F)c2C)cc1OC
1.74 µM	CCC(C)Oc1cccc(C(=O)Nc2ccc(CN3CCOCC3)cc2)c1 (stereo not drawn)
4.61 µM	CCN1C(=O)c2cccnc2Sc2cc(NC(=O)c3ccc(Cl)s3)ccc21
2.15 µM	O=C(Nc1cccc(Br)c1)c1cc(-c2cccnc2)n[nH]1
8.44 µM	COc1ccc(OC)c(-n2c(SCC(=O)N3CCc4ccccc43)nnc2-c2cccc(S(=O)(=O)N(C)C)c2)c1

IC50	SMILES
16 µM	Cc1nn(C)c2c1[C@@H](c1ccc(F)cc1)[C@H](NC(=O)c1ccccc1)C(=O)N2
5.47 µM	CCOC(=O)c1cnn(-c2ccc(C(=O)Nc3ccc(C)c(Cl)c3)cc2)c1N
8.9 µM	COc1ccc(C(=O)Nc2ccc3c(c2)C(=O)N(C)c2ccccc2O3)cc1
4.28 µM	Cc1sc2ccn(C)c(=O)c2c1C(=O)NC1CCCC1
< 0.05 µM	CCCc1nc2sc3c(NC4CCCCC4)ncnc3c2c2c1CCC2
9.44 µM	Cc1nc2cc(NC(=O)C3CN(C(=O)c4cnccn4)C3)ccc2s1
2.74 µM	CC(C)CC[C@H]1O[C@@H](CC(=O)O)Cc2cc3c(c(O)c21)C(=O)c1sc(=O)n(C)c1C3=O
4.67 µM	O=C1N(Cc2ccc(F)cc2)CCN1c1ccc(C(F)(F)F)cn1
14 µM	CCOc1ccc(NC(=O)c2cc(-c3ccccc3)c(N3CCOCC3)s2)cc1
16.5 µM	O=C(Cc1nnc2c(-c3nc(C4CC4)no3)cccn12)Nc1ccccc1
18.5 µM	CSc1ncc(C(=O)NC(C)c2ccccc2)c(-c2ccccc2)n1 (stereo not drawn)
18.5 µM	Cc1cc(=O)n(CC(=O)NCc2ccccc2F)c2c1c(C)nn2-c1ccccc1
2.92 µM	O=C(COC(=O)c1cc(Cl)c2c(c1)OCO2)Nc1ccc2[nH]c(=O)[nH]c2c1
0.695 µM	O=C(NCc1ccc(F)cc1)C1CCN(c2cnc(N3CCCCC3)nc2)CC1
7.25 µM	CC1CS(=O)(=O)N(c2ccc(C(=O)Nc3ccc4c(c3)OCCO4)cc2)C1=O (stereo not drawn)
15.3 µM	Cc1cccc(C(=O)Nc2cccc(SC(C(=O)Nc3ccc(Cl)c(C(=O)O)c3)c3ccccc3)c2)c1 (stereo not drawn)
1.49 µM	CC(=O)C1=C(O)[C@]2(O)C(=O)c3c(c(C)c4ccc(C)c(O)c4c3O)C[C@H]2[C@@H](N)C1=O
2.12 µM	CN(C)c1ccc(C2CC(c3c(O)n(C)c(=O)[nH]c3=O)=Nc3ccccc3S2)cc1 (stereo not drawn)
